Molecular target: T1, human ALX receptor (Homo sapiens, UniProt P25090)
T1 construct: expressed in transfected cells; host or cells: HEK293 (HEK293-hALXR-Ga16)
T1 sequence (P25090 1-351): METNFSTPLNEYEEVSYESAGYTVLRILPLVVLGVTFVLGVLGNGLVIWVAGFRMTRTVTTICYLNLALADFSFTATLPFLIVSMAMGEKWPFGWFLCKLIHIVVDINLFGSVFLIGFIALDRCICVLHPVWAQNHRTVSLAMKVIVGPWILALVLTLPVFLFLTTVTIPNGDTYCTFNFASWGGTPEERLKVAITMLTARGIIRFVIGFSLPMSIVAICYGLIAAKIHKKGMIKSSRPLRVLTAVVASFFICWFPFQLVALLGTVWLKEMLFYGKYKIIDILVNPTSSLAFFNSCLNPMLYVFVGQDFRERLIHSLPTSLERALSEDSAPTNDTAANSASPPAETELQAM
Assay: Intracellular calcium measurements (FLIPR), ALX receptor agonistic activity
Assay type: cell-based
Conditions: HEK293-hALXR-Ga16 cells, calcium flux, normalized to WKYMVm 10 nM; read-out: EC50 (agonistic activity with respect to the ALX receptor)
Method: The ALX receptor agonistic activity of the compounds of formula (I) is determined in accordance with the following experimental method.
Intracellular Calcium Measurements:
Cells expressing recombinant human ALX receptor and the G-protein Ga16 (HEK293-hALXR-Ga16) were grown to 80% confluency in Growing Medium (GM). Cells were detached from culture dishes with a cell dissociation buffer (Invitrogen, 13151-014), and collected by centrifugation at 1′000 rpm at rt for 5 min in Assay Buffer (AB) (equal parts of Hank's BSS (Gibco, 14065-049) and DMEM without Phenol Red (Gibco, 11880-028)). After 60 min incubation at 37° C. under 5% CO2 in AB supplemented with 1 μM Fluo-4 (AM) (Invitrogen, F14202) and 20 mM HEPES (Gibco, 15630-056), the cells were washed and resuspended in AB. They were then seeded onto 384-well FLIPR assay plates (Greiner, 781091) at 50′000 cells in 70 μl per well and sedimented by centrifugation at 1′000 rpm for 1 min. Stock solutions of test compounds were made up at a concentration of 10 mM in DMSO, and serially diluted in AB to concentrations required for activation dose response curves. WKYMVm (Phoenix Peptides) was used as a reference agonist. A FLIPR Tetra instrument (Molecular Devices) was operated according to the manufacturer's standard instructions, adding 4 μl of test compound dissolved at 10 mM in DMSO and diluted prior to the experiment in assay buffer to obtain the desired final concentration. Changes in fluorescence were monitored before and after the addition of test compounds at lex=488 nm and lem=540 nm. Emission peak values above base level after compounds addition were exported after base line subtraction. Values were normalized to high-level control (WKYMVm compound, 10 nM final concentration) after subtraction of the base line value (AB addition).

| EC50 [nM] | SMILES |
| --- | --- |
| 58 | Cc1nc(C(=O)Nc2cnn(Cc3nc(C(C)(F)F)cs3)n2)c(-c2cccc(OC(F)(F)F)c2)o1 [Example 14, 2-Methyl-5-(3-trifluoromethoxy-phenyl)-oxazole-4-carboxylic acid{2-[4-(1,1-difluoro-ethyl)-thiazol-2-ylmethyl]-2H-[1,2,3]triazol-4-yl}-amide] |
| 23 | Cc1nc(C(=O)Nc2cnn(Cc3ccc(C(C)(F)F)o3)n2)c(-c2cccc(Cl)c2)o1 [Example 15, 5-(3-Chloro-phenyl)-2-methyl-oxazole-4-carboxylic acid{2-[5-(1,1-difluoro-ethyl)-furan-2-ylmethyl]-2H-[1,2,3]triazol-4-yl}-amide] |
| 46 | CC(F)(F)c1ccc(Cn2ncc(NC(=O)c3ncoc3-c3ccc(F)cc3)n2)o1 [Example 16, 5-(4-Fluoro-phenyl)-oxazole-4-carboxylic acid{2-[5-(1,1-difluoro-ethyl)-furan-2-ylmethyl]-2H-[1,2,3]triazol-4-yl}-amide] |
| 11 | Cc1cccc(-c2ocnc2C(=O)Nc2cnn(Cc3nc(C(C)(F)F)cs3)n2)c1 [Example 17, 5-m-Tolyl-oxazole-4-carboxylic acid {2-[4-(1,1-difluoro-ethyl)-thiazol-2-ylmethyl]-2H-[1,2,3]triazol-4-yl}-amide] |
| 661 | Cc1nc(C(=O)Nc2cnn(Cc3ccc(C(C)(F)F)o3)n2)c(-c2cc(F)cc(F)c2)o1 [Example 18, 5-(3,5-Difluoro-phenyl)-2-methyl-oxazole-4-carboxylic acid {2-[5-(1,1-difluoro-ethyl)-furan-2-ylmethyl]-2H-[1,2,3]triazol-4-yl}-amide] |
| 33 | CN(C)c1cccc(-c2ocnc2C(=O)Nc2cnn(Cc3ccc(C(C)(F)F)o3)n2)c1 [Example 19, 5-(3-Dimethylamino-phenyl)-oxazole-4-carboxylic acid {2-[5-(1,1-difluoro-ethyl)-furan-2-ylmethyl]-2H-[1,2,3]triazol-4-yl}-amide] |
| 55 | CC(F)(F)c1csc(Cn2ncc(NC(=O)c3ncoc3-c3cccc(F)c3)n2)n1 [Example 20, 5-(3-Fluoro-phenyl)-oxazole-4-carboxylic acid {2-[4-(1,1-difluoro-ethyl)-thiazol-2-ylmethyl]-2H-[1,2,3]triazol-4-yl}-amide] |
| 35 | COc1cccc(-c2ocnc2C(=O)Nc2cnn(Cc3ccc(C(C)(F)F)o3)n2)c1 [Example 21, 5-(3-Methoxy-phenyl)-oxazole-4-carboxylic acid {2-[5-(1,1-difluoro-ethyl)-furan-2-ylmethyl]-2H-[1,2,3]triazol-4-yl}-amide] |
| 52 | CN(C)c1cccc(-c2ocnc2C(=O)Nc2cnn(Cc3nc(C(C)(F)F)cs3)n2)c1 [Example 22, 5-(3-Dimethylamino-phenyl)-oxazole-4-carboxylic acid {2-[4-(1,1-difluoro-ethyl)-thiazol-2-ylmethyl]-2H-[1,2,3]triazol-4-yl}-amide] |
| 10 | Cc1cccc(-c2ocnc2C(=O)Nc2cnn(Cc3ccc(C(C)(F)F)o3)n2)c1 [Example 23, 5-m-Tolyl-oxazole-4-carboxylic acid {2-[5-(1,1-difluoro-ethyl)-furan-2-ylmethyl]-2H-[1,2,3]triazol-4-yl}-amide] |
| 2.1 | Cc1nc(C(=O)Nc2cnn(Cc3ccc(C(C)(F)F)o3)n2)c(-c2cccc(C(F)(F)F)c2)o1 [Example 24, 2-Methyl-5-(3-trifluoromethyl-phenyl)-oxazole-4-carboxylic acid {2-[5-(1,1-difluoro-ethyl)-furan-2-ylmethyl]-2H-[1,2,3]triazol-4-yl}-amide] |
| 221 | CC(F)(F)c1csc(Cn2ncc(NC(=O)c3ncoc3-c3ccc(F)cc3)n2)n1 [Example 25, 5-(4-Fluoro-phenyl)-oxazole-4-carboxylic acid {2-[4-(1,1-difluoro-ethyl)-thiazol-2-ylmethyl]-2H-[1,2,3]triazol-4-yl}-amide] |
| 742 | Cc1cc(F)cc(-c2oc(C)nc2C(=O)Nc2cnn(Cc3ccc(C(C)(F)F)o3)n2)c1 [Example 26, 5-(3-Fluoro-5-methyl-phenyl)-2-methyl-oxazole-4-carboxylic acid {2-[5-(1,1-difluoro-ethyl)-furan-2-ylmethyl]-2H-[1,2,3]triazol-4-yl}-amide] |
| 59 | Cc1nc(C(=O)Nc2cnn(Cc3ccc(C(C)(F)F)o3)n2)c(-c2cccc(OC(F)(F)F)c2)o1 [Example 27, 2-Methyl-5-(3-trifluoromethoxy-phenyl)-oxazole-4-carboxylic acid {2-[5-(1,1-difluoro-ethyl)-furan-2-ylmethyl]-2H-[1,2,3]triazol-4-yl}-amide] |
| 6 | CC(F)(F)c1ccc(Cn2ncc(NC(=O)c3ncoc3-c3ccccc3)n2)o1 [Example 28, 5-Phenyl-oxazole-4-carboxylic acid {2-[5-(1,1-difluoro-ethyl)-furan-2-ylmethyl]-2H-[1,2,3]triazol-4-yl}-amide] |
| 5.6 | Cc1nc(C(=O)Nc2cnn(Cc3nc(C(C)(F)F)cs3)n2)c(-c2cccc(Cl)c2)o1 [Example 29, 5-(3-Chloro-phenyl)-2-methyl-oxazole-4-carboxylic acid {2-[4-(1,1-difluoro-ethyl)-thiazol-2-ylmethyl]-2H-[1,2,3]triazol-4-yl}-amide] |
| 11 | CCc1nc(C(=O)Nc2cnn(Cc3nc(C(C)(F)F)cs3)n2)c(-c2ccccc2)o1 [Example 30, 2-Ethyl-5-phenyl-oxazole-4-carboxylic acid {2-[4-(1,1-difluoro-ethyl)-thiazol-2-ylmethyl]-2H-[1,2,3]triazol-4-yl}-amide] |
| 12 | Cc1cccc(-c2oc(C)nc2C(=O)Nc2cnn(Cc3coc(C(C)(F)F)n3)n2)c1 [Example 32, N-(2-((2-(1,1-Difluoroethyl)oxazol-4-yl)methyl)-2H-1,2,3-triazol-4-yl)-2-methyl-5-(m-tolyl)oxazole-4-carboxamide] |
| 2.9 | Cc1nc(C(=O)Nc2cnn(Cc3nc(C(C)(F)F)co3)n2)c(-c2ccccc2)o1 [Example 33, 2-Methyl-5-phenyl-oxazole-4-carboxylic acid {2-[4-(1,1-difluoro-ethyl)-oxazol-2-ylmethyl]-2H-[1,2,3]triazol-4-yl}-amide] |
| 6.1 | CN(C)c1cccc(-c2ocnc2C(=O)Nc2cnn(Cc3nc(C(C)(F)F)co3)n2)c1 [Example 34, 5-(3-Dimethylamino-phenyl)-oxazole-4-carboxylic acid {2-[4-(1,1-difluoro-ethyl)-oxazol-2-ylmethyl]-2H-[1,2,3]triazol-4-yl}-amide] |
| 4 | CN(C)c1cc(-c2ocnc2C(=O)Nc2cnn(Cc3nc(C(C)(F)F)co3)n2)ccc1F [Example 35, 5-(3-Dimethylamino-4-fluoro-phenyl)-oxazole-4-carboxylic acid {2-[4-(1,1-difluoro-ethyl)-oxazol-2-ylmethyl]-2H-[1,2,3]triazol-4-yl}-amide] |
| 77 | Cc1nc(C(=O)Nc2cnn(Cc3nc(C(C)(F)F)co3)n2)c(-c2ccc(F)c(N(C)C)c2)o1 [Example 36, 5-(3-Dimethylamino-4-fluoro-phenyl)-2-methyl-oxazole-4-carboxylic acid{2-[4-(1,1-difluoro-ethyl)-oxazol-2-ylmethyl]-2H-[1,2,3]triazol-4-yl}-amide] |

— patent US8580831B2, “Fluorinated aminotriazole derivatives” (Actelion Pharmaceuticals Ltd., priority 2009, dated 2013)
